Results from US20150376225A1, “NOVEL COMPOUNDS OF 11BETA-HYDROXY-STEROIDS FOR USE IN MITOCHONDRIA BIOGENESIS AND DISEASES ASSOCIATED WITH MITOCHONDRIAL DYSFUNCTION OR DEPLETION” (SPHAERA PHARMA PVTD. LTD., priority 2013, published 2015).

Key:
[1] = test system: BCAEC; assay: 3-(4,5-Dimethylthiazol-2-yl)-2,5-diphenyltetrazolium bromide (MTT) assay, mitochondrial function (MTT/Methylene Blue ratio); type: cell-based, bovine; details: treated for 48 hours
Protocol: 3-(4,5-Dimethylthiazol-2-yl)-2,5-diphenyltetrazolium bromide (MTT) assay
6,000 BCAEC were seeded into clear 96-well flat bottom plates at 100 μl per well. After starvation, cells were treated for 48 hours with the corresponding compounds. Compounds were changed every 12 and 24 hours (with 100 μl per well of fresh medium). Following the treatment medium was aspirated from plates, and washed once with 100 μl HBSS, subsequently 100 μl per well 0.5 mg/ml MTT in phenol red-free DMEM was added. Plates were incubated for 1 hour at 37° C., and this was followed by aspiration of MTT solution, addition of 100 μl per well DMSO to dissolve formazan crystals, and incubation at 37° C. for 15 minutes. Mitochondrial function was quantified by absorbance was measured at 540 nm with background substraction at 670 nm using. After MTT absorbance measure, media was removed and cells quantify in each well as described elsewhere (Oliver et al, 1989) with some modifications. In brief, 100 μl of 10% formol saline to each well was added, and incubated at 4° C. for 24 hours. Next, formol solution was removed from the wells and 100 μl of filtered 0.1% (w/v) Methylene Blue in 0.01 M borate buffer (pH 8.5) was added to each well. After 30 minutes, excess dye was removed and washed off 3 times with 0.01 M borate buffer (pH 8.5). […] The plates were then gently shaken and incubated for 15 minutes under a bench rocker. Absorbance was measured at 650 nm. The MTT/Methylene Blue ratio was used to quantify the mitochondrial function. Oliver M H, Harrison N K, Bishop J E, Cole P J, Lauren G J. A rapid and convenient assay for counting cells cultured in microwell plates: application for assessment of growth factors. J Cell Sci. 1989, 3:513-8.

[2] = test system: oxidative phosphorylation complex I; assay: Slot blot method, complex I normalized to GAPDH; type: cell-based, bovine
Protocol: Following treatment, bovine aortic endothelial cells grown in 12 well plates are scrapped in 50 μl of lysis buffer (1% Triton X-100, 20 mm Tris, 140 mm NaCl, 2 mm EDTA, and 0.1% SDS) with protease and phosphatase inhibitor cocktails (P2714 and P2850, Sigma-Aldrich) supplemented with 0.15 mm PMSF, 5 mm Na3VO4 and 3 mm NaF. Homogenates are passed through an insulin syringe five times, sonicated for 30 min at 4° C. and centrifuged (12,000 g) for 10 min. The total protein content is measured in the supernatant using the Bradford method. A total of 10-20 μg of protein are loaded into a pre-assembled slot blot apparatus to be transferred under vacuum onto polyvinyl membranes, incubated for 1 h in blocking solution (5% non-fat dry milk in TBS plus 0.1% Tween 20 (TBS-T)), followed by a overnight incubation at 4° C. with primary antibodies (oxidative phosphorylation complex I or GAPDH). Primary antibodies are diluted in TBS-T plus 5% non-fat dry milk. Membranes are washed (3× for 5 min) in TBS-T and incubated 1 h at room temperature in the presence of HRP-conjugated secondary antibodies diluted in blocking solution. Membranes are again washed 3 times in TBS-T, and the immunoblots developed using an ECL Plus detection kit (Amersham-GE). Band intensities are digitally quantified using ImageJ software (http://www.nih.gov). Complex I values are normalized for loading differences using GAPDH after stripping and reprobing of the membrane. All Western blot images to be obtained will be within the linear range of X-ray film to ensure computer-assisted densitometry accuracy.

[3] = test system: AMPK; assay: AMPK activation, cell based ELISA in Hep G2 cells; details: 1 h incubation, DMSO control as 100%
Protocol: AMPK Activation Protocol:
AMPK activation potential of the compounds was evaluated using cell based ELISA.
Hepatoma (Hep G2) liver cells were maintained in a T 75 culture flask-containing 25 mM DMEM+10% fetal calf serum. The cells were maintained in a T 75 culture flask-containing medium (DMEM+10% fetal calf serum). On reaching a confluence of 70 to 80%, the cells were seeded in a 96 well plate at a density of 40,000 cells per well in 25 mM DMEM+10% FCS medium. The plates were then incubated at 37° C. with 5% CO2 for 24 hours. Various concentrations of drugs were prepared in DMSO and diluted to required concentration with the medium and incubated at 37° C. with 5% CO2 for 30 min and 1 h for Epicatechin analogs and 11-BHP analogs respectively. Metformin was used as positive control. Cells were fixed with 4% formaldehyde for 30 minutes at room temperature and washed three times with PBS containing 0.1% Triton X-100. Endogenous peroxidase was quenched with 1% H2O2 in PBS-T (0.1% Tween 20) for 30 minutes and washed three times in PBS-T. Cells were blocked with 1% BSA in PBS-T for 1 hour.

Structure (SMILES)	MTT Assay [1]	Slot Blot Assay [2]	further results
CC1([C@H]2CC[C@H]3[C@@H]4CC=C5C[C@@H](O)CC[C@]5(C)[C@H]4[C@@H](O)C[C@]23C)OCCO1 [Compound 1001, (3S,8S,9S,10R,11S,13S,14S,17S)-10,13-dimethyl-17-(2-methyl-1,3-dioxolan-2-yl)-2,3,4,7,8,9,10,11,12,13,14,15,16,17-tetradecahydro-1H-cyclopenta[a]phenanthrene-3,11-diol]	+ (+ indicates >110%)		
CC(=O)[C@H]1CC[C@H]2[C@@H]3CC=C4C[C@@H](O)CC[C@]4(C)[C@H]3[C@@H](O)C[C@]12C [Compound 1002, 1-((3S,8S,9S,10R,11S,13S,14S,17S)-3,11-dihydroxy-10,13-dimethyl-2,3,4,7,8,9,10,11,12,13,14,15,16,17-tetradecahydro-1H-cyclopenta[a]phenanthren-17-yl)ethanone]		+ (+ indicates >150% HCAEC)	
CC(O)[C@H]1CC[C@H]2[C@@H]3CC=C4C[C@@H](O)CC[C@]4(C)[C@H]3[C@@H](O)C[C@]12C (stereo partly drawn) [Compound 1003, (3S,8S,9S,10R,11S,13S,14S,17S)-17-(1-hydroxyethyl)-10,13-dimethyl-2,3,4,7,8,9,10,11,12,13,14,15,16,17-tetradecahydro-1H-cyclopenta[a]phenanthrene-3,11-diol]	+ (+ indicates >110%)		
COC(=O)[C@H]1CC[C@H]2[C@@H]3CC=C4C[C@@H](O)CC[C@]4(C)[C@H]3[C@@H](O)C[C@]12C [Compound 1004, (3S,8S,9S,10R,11S,13S,14S,17S)-methyl 3,11-dihydroxy-10,13-dimethyl-2,3,4,7,8,9,10,11,12,13,14,15,16,17-tetradecahydro-1H-cyclopenta[a]phenanthrene-17-carboxylate]		+ (+ indicates >150% HCAEC)	
CC(=O)[C@H]1CC[C@H]2[C@@H]3CCC4=CC(=O)CC[C@]4(C)[C@H]3[C@@H](O)C[C@]12C [Compound 1007, (8S,9S,10R,11S,13S,14S,17S)-17-acetyl-11-hydroxy-10,13-dimethyl-6,7,8,9,10,11,12,13,14,15,16,17-dodecahydro-1H-cyclopenta[a]phenanthren-3(2H)-one]	+ (+ indicates >110%)		
CC[C@H]1CC[C@H]2[C@@H]3CC=C4C[C@@H](O)CC[C@]4(C)[C@H]3[C@@H](O)C[C@]12C [Compound 1009, (3S,8S,9S,10R,11S,13R,14S,17S)-17-ethyl-10,13-dimethyl-2,3,4,7,8,9,10,11,12,13,14,15,16,17-tetradecahydro-1H-cyclopenta[a]phenanthrene-3,11-diol]		+ (+ indicates >150% HCAEC)	
Cc1noc([C@H]2CC[C@H]3[C@@H]4CCC5=CC(=O)CC[C@]5(C)[C@H]4[C@@H](O)C[C@]23C)n1 [Compound 1012, (8S,9S,10R,11S,13S,14S,17S)-11-hydroxy-10,13-dimethyl-17-(3-methyl-1,2,4-oxadiazol-5-yl)-6,7,8,9,10,11,12,13,14,15,16,17-dodecahydro-1H-cyclopenta[a]phenanthren-3(2H)-one]		+ (+ indicates >150% HCAEC)	
C[C@]12C[C@H](O)C3C(CCC4=CC(=O)CC[C@@]43C)C1CCC2C(=O)CO (stereo partly drawn) [Compound 1048, (10R,11S,13S)-11-hydroxy-17-(2-hydroxyacetyl)-10,13-dimethyl-1,2,6,7,8,9,10,11,12,13,14,15,16,17-tetradecahydro-3H-cyclopenta[a]phenanthren-3-one]			% activation pAMPK at 1 nM [3]: 108%
